Results: ChEMBL document CHEMBL4219169, “Sulfoximines as potent RORγ inverse agonists” (Bioorg Med Chem Lett, 2018)
pIC50, pKd: −log10 of the molar value.

How the values were obtained:
[1] = Intrinsic clearance in human hepatocytes assessed per million cells at 1 uM incubated for 5 to 90 mins by LC-MS/MS method; type: ADME, cell-based, Hepatocyte; conditions: read-out: CLH
[2] = Phototoxicity against human neonatal keratinocytes assessed as cell viability preincubated for 30 mins before 5 J/cm2 UV light irradiation for 15 mins followed by treatment medium replacement with fresh culture medium after 24 hrs by neutral red dye-based assay; conditions: 0.25 h
Salmonella typhimurium [3] = test: Genotoxicity in Salmonella typhimurium TA98 in presence of aroclor-1254-induced rat S9 fraction by Ames test; type: toxicity, organism-based; conditions: salmonella enterica subsp. enterica serovar typhimurium
Salmonella typhimurium [4] = test: Genotoxicity in Salmonella typhimurium TA98 in absence of aroclor-1254-induced rat S9 fraction by Ames test; type: toxicity, organism-based; conditions: salmonella enterica subsp. enterica serovar typhimurium
Salmonella typhimurium [5] = test: Genotoxicity in Salmonella typhimurium TA100 in presence of aroclor-1254-induced rat S9 fraction by Ames test; type: toxicity, organism-based; conditions: salmonella enterica subsp. enterica serovar typhimurium
Salmonella typhimurium [6] = test: Genotoxicity in Salmonella typhimurium TA100 in absence of aroclor-1254-induced rat S9 fraction by Ames test; type: toxicity, organism-based; conditions: salmonella enterica subsp. enterica serovar typhimurium
TK6 [7] = test: Genotoxicity in human-derived p53-competent TK6 cells expressing GADD45a-dependent green fluorescent protein assessed as decrease in cell viability after 48 hrs in absence of Sprague-Dawley rat S9 fraction by FACS analysis; type: toxicity, cell-based; conditions: tk6, 48 h
[8] = molecular target: T1, Retinoic acid receptor gamma (Homo sapiens, UniProt P13631); test: (§1) Inverse agonist activity at RARgamma (unknown origin) expressed in human HeLa-derived HG5LN cells transfected with the GAL4 DNA-binding domain fused to the RARgamma ligand-binding domain assessed as inhibition of transcriptional activity after 18 hrs by luminescence-based luciferase reporter gene assay; type: cell-based
T1 sequence (P13631 whole entry): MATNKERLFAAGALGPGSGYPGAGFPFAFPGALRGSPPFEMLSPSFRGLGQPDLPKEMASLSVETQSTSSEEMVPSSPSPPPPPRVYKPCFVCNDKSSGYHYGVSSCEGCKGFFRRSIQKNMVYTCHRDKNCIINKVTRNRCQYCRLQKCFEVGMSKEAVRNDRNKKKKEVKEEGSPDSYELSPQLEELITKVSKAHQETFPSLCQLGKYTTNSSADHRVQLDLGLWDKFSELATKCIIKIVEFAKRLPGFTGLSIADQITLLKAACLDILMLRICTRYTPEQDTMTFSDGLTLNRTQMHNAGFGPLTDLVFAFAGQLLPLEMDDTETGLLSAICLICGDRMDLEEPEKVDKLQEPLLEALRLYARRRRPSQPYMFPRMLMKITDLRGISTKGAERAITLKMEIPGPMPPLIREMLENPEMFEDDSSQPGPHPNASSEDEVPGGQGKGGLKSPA

[9] = molecular target: T2, Nuclear receptor ROR-alpha (Homo sapiens, UniProt P35398); test: as §1, with “RORalpha” for “RARgamma”; type: cell-based
T2 sequence (P35398 whole entry): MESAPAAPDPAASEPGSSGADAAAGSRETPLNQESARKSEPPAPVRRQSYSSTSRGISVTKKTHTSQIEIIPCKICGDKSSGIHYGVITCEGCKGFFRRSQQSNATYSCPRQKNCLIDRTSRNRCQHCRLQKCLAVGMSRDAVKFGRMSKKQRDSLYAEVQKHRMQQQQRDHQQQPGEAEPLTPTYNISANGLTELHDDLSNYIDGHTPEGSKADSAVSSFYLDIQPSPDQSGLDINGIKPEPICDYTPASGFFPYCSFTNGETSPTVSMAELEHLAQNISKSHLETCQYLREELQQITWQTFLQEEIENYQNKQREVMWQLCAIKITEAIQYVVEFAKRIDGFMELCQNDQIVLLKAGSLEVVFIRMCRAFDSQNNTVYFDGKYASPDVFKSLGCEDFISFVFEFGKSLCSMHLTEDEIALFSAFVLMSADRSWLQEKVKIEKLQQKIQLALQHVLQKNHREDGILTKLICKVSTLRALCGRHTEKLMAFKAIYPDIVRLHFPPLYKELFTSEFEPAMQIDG

TK6 [10] = test: Genotoxicity in human TK6 cells incubated for 3 hrs in absence of aroclor-1254-induced rat S9 fraction followed by 27 hrs recovery period by Giemsa staining dependent optical microscopy based micronucleus test; type: toxicity, cell-based; conditions: tk6, 3 h
Mus musculus [11] = test: (§2) In vivo inverse agonist activity at RORgamma in wild type BALB/c ByJ Rj mouse model of imiquimod-induced skin inflammation model assessed as attenuation of imiquimod-induced epidermal hyperplasia at 0.5% administered topically twice daily for 7 days dosed 2 hrs before and 6 hrs after imiquimod administration measured on day 8 by hematoxylin and eosin staining-based histological analysis; type: functional
Mus musculus [12] = test: as §2, with “1%” for “0.5%”; type: functional
Mus musculus [13] = test: as §2, with “3%” for “0.5%”; type: functional
Mus musculus [14] = test: as §2, with “6%” for “0.5%”; type: functional
Vitamin D3 receptor = molecular target: T3, Vitamin D3 receptor (Homo sapiens, UniProt P11473)
T3 sequence (P11473 whole entry): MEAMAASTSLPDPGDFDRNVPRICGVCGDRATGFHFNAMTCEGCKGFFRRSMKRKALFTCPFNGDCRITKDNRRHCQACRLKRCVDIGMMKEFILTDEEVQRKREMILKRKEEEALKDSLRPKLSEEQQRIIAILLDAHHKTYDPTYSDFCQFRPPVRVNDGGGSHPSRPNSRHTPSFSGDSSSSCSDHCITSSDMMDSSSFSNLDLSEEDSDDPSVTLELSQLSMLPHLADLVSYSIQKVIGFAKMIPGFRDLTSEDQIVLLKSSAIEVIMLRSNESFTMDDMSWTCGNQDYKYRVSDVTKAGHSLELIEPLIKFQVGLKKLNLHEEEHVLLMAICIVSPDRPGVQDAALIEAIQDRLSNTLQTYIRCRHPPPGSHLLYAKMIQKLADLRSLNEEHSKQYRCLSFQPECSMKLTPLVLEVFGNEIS
Description: Activity at VDR expressed in human HeLa-derived HDLN6 cells assessed as inhibition of transcriptional activity after 18 hrs by luminescence-based luciferase reporter gene assay

[15] = molecular target: T4, Peroxisome proliferator-activated receptor gamma (Homo sapiens, UniProt P37231)
T4 sequence (P37231 whole entry): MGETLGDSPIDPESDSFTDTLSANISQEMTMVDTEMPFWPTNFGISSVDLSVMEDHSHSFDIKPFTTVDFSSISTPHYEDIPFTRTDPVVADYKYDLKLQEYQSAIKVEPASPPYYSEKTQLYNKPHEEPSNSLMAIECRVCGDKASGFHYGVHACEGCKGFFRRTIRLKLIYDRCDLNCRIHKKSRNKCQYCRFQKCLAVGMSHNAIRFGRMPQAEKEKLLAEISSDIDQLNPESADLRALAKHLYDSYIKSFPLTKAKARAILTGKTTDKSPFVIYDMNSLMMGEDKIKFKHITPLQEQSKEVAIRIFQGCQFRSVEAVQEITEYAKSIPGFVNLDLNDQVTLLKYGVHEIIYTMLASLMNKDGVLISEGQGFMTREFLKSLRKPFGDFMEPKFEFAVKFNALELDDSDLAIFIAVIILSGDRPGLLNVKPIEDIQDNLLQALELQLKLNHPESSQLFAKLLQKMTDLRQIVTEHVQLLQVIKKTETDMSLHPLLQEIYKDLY
Description: Activity at PPARgamma (unknown origin) expressed in human HeLa-derived HG5LN cells transfected with the GAL4 DNA-binding domain fused to the PPARgamma ligand-binding domain assessed as inhibition of transcriptional activity after 18 hrs by luminescence-based luciferase reporter gene assay

hepatocyte CLint at 1 µM [1]: 180 µL/min/1e6 cells | pIC50 [8]: < 5.00 | pIC50 [9]: < 5.00 | pKd (Vitamin D3 receptor): < 5.00 | pKd [15]: < 5.00
SMILES: CCc1ccc(N(CC(C)C)S(=O)(=O)c2ccc(OCC3CCOCC3)c([S@@](C)(=N)=O)c2)cc1
Activity [2]: Non-Toxic | Activity (Salmonella typhimurium [3]): Non-Toxic | Activity (Salmonella typhimurium [4]): Non-Toxic | Activity (Salmonella typhimurium [5]): Non-Toxic | Activity (Salmonella typhimurium [6]): Non-Toxic | Activity (TK6 [7]): Non-Toxic | Activity (TK6 [10]): Non-Toxic | Activity (Mus musculus [11]): 29% | Activity (Mus musculus [12]): 35% | Activity (Mus musculus [13]): 46% | Activity (Mus musculus [14]): 63%
